This is an account of results in PubChem BioAssay (NCI).

Test systems include HCT-116 colon; HS 578T breast; HT29 colon; M14 melanoma; NCI-H226 lung; OVCAR-3 ovarian; SK-MEL-28 melanoma; SN12C renal; SNB-75 CNS; UACC-257 melanoma.
Common to all, as to experiment: NCI-60 cell line screen, 48 h

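Compound exposure: 48 hours, 5 concentrations, 96-well plates. Abbreviation: GI50, concentration required for 50% inhibition of growth. TGI marks complete inhibition of growth.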

As to `O=c1c2c(nc3n1CCS3)[nH]c1cc([N+](=O)[O-])ccc12`, the GI50 with HCT-116 colon is more than 100 µM; in the assay with HS 578T breast it was more than 100 µM; with HT29 colon, more than 100 µM; in the assay on M14 melanoma, more than 100 µM; with NCI-H226 lung it was more than 100 µM; in the assay with OVCAR-3 ovarian it was 25.5 µM. Besides, the GI50 with SK-MEL-28 melanoma is more than 100 µM; with SN12C renal, more than 100 µM; in the assay with SNB-75 CNS it was 57.1 µM; with UACC-257 melanoma, more than 100 µM. Moreover, the TGI was more than 100 µM with HCT-116 colon; more than 100 µM in the assay with HS 578T breast; more than 100 µM in the assay on HT29 colon; more than 100 µM in the assay on M14 melanoma; more than 100 µM in the assay with NCI-H226 lung; 81.2 µM in the assay on OVCAR-3 ovarian. Further, the TGI with SK-MEL-28 melanoma, in the assay on SN12C renal, in the assay with SNB-75 CNS and in the assay with UACC-257 melanoma was more than 100 µM in each case.
As for `CN[C@H]1CN(c2ccc3c(=O)c(C(=O)O)cn(-c4nccs4)c3n2)C[C@@H]1OC`, the GI50 was 0.437 µM in the assay with HCT-116 colon; 1.49 µM with HS 578T breast; 1.04 µM in the assay on HT29 colon; 0.783 µM in the assay with M14 melanoma; 0.632 µM in the assay with NCI-H226 lung; 1.82 µM with OVCAR-3 ovarian. In addition, the GI50 in the assay with SK-MEL-28 melanoma was 1.31 µM; in the assay with SN12C renal, 0.364 µM; with SNB-75 CNS it was 0.637 µM; in the assay with UACC-257 melanoma, 1.11 µM. Also, the TGI in the assay on HCT-116 colon turned out to be 4.58 µM; in the assay on HS 578T breast it was 6.68 µM; in the assay with HT29 colon, 4.2 µM; in the assay on M14 melanoma it was 2.34 µM; with NCI-H226 lung, 3.24 µM; in the assay on OVCAR-3 ovarian, 6.48 µM. Moreover, the TGI in the assay with SK-MEL-28 melanoma was 3.01 µM; in the assay on SN12C renal it was 5.69 µM; with SNB-75 CNS, 2.55 µM; in the assay with UACC-257 melanoma, 2.83 µM.
With `O=C(O)CCNCC(=O)O`, the TGI in the assay with HCT-116 colon, in the assay on HS 578T breast, with HT29 colon, in the assay on M14 melanoma, in the assay on NCI-H226 lung and in the assay with OVCAR-3 ovarian was more than 100 µM each time. For the same compound, the TGI in the assay on SK-MEL-28 melanoma, with SN12C renal, with SNB-75 CNS and with UACC-257 melanoma was more than 100 µM each time.
In the case of `Oc1c(Cl)cc(Cl)c(Cl)c1CNCCNCc1c(O)c(Cl)cc(Cl)c1Cl`, the GI50 was 0.731 µM in the assay on HCT-116 colon; 5.32 µM in the assay with HS 578T breast; 5.83 µM with HT29 colon; 1.22 µM with M14 melanoma; 4.1 µM in the assay on NCI-H226 lung; 0.502 µM in the assay with OVCAR-3 ovarian. Besides, the GI50 with SK-MEL-28 melanoma is 1.02 µM; with SN12C renal, 2.02 µM; in the assay with SNB-75 CNS it was 2.43 µM; with UACC-257 melanoma, 1.76 µM. The TGI in the assay on HCT-116 colon is 8.52 µM; with HS 578T breast, 27.9 µM; with HT29 colon, more than 50 µM; in the assay with M14 melanoma, 26 µM; in the assay on NCI-H226 lung, 18.1 µM; in the assay with OVCAR-3 ovarian, 7.08 µM. For the same compound, the TGI with SK-MEL-28 melanoma came out at 8.64 µM; with SN12C renal it was 17.9 µM; with SNB-75 CNS it was 10.6 µM; with UACC-257 melanoma, 9.88 µM.
`Cc1cnc2n1S(=O)(=O)c1cc(C(=O)Nc3cccc4nsnc34)c(Cl)cc1S2`: the GI50 in the assay on HCT-116 colon is 20.1 µM; with HS 578T breast, 24.5 µM; in the assay on HT29 colon, 32.3 µM; in the assay with M14 melanoma, 52.2 µM; in the assay on NCI-H226 lung, 17.3 µM; in the assay on OVCAR-3 ovarian, 16.2 µM. Besides, the GI50 was 19.8 µM in the assay on SK-MEL-28 melanoma, 25.3 µM in the assay with SN12C renal, 25.6 µM in the assay on SNB-75 CNS and 19.1 µM in the assay on UACC-257 melanoma. Besides, the TGI in the assay on HCT-116 colon is 35.6 µM; in the assay with HS 578T breast it was 63.3 µM; in the assay with HT29 colon, 93.8 µM; with M14 melanoma it was more than 100 µM; in the assay on NCI-H226 lung it was 34.2 µM; in the assay on OVCAR-3 ovarian, 30.2 µM. In addition, the TGI in the assay on SK-MEL-28 melanoma stood at 42.6 µM; in the assay with SN12C renal it was 58.5 µM; in the assay on SNB-75 CNS, 62.3 µM; in the assay on UACC-257 melanoma, 38.3 µM.
As to `COc1ccc(/C=C\c2cc(OC)c(OC)c(OC)c2)cc1OCC(=O)Nc1nc2ccc(F)cc2s1`, the GI50 in the assay on HCT-116 colon was 4.48 µM; with HS 578T breast, more than 100 µM; in the assay with HT29 colon it was 9.63 µM; in the assay with M14 melanoma, 6.82 µM; with NCI-H226 lung, 5.6 µM; in the assay on OVCAR-3 ovarian, 9.99 µM. In addition, the GI50 in the assay on SK-MEL-28 melanoma is more than 100 µM; in the assay on SN12C renal, 4.61 µM; with SNB-75 CNS, 4.39 µM; in the assay with UACC-257 melanoma, 8.69 µM. Besides, the TGI in the assay on HCT-116 colon, in the assay on HS 578T breast, in the assay on HT29 colon, in the assay on M14 melanoma, in the assay on NCI-H226 lung and in the assay on OVCAR-3 ovarian was more than 100 µM in each case. Moreover, the TGI in the assay with SK-MEL-28 melanoma, in the assay on SN12C renal, with SNB-75 CNS and in the assay with UACC-257 melanoma was more than 100 µM each time.
For `CCc1ccc(Oc2c(-c3ccc(OCc4ccc(Cl)cc4)cc3O)n[nH]c2C(F)(F)F)cc1`, the GI50 in the assay with HCT-116 colon was 1.67 µM; with HS 578T breast it was 2.66 µM; in the assay on HT29 colon it was 2 µM; with M14 melanoma, 1.88 µM; with NCI-H226 lung it was 2.11 µM; with OVCAR-3 ovarian, 1.78 µM. The GI50 with SK-MEL-28 melanoma was 1.82 µM; in the assay on SN12C renal it was 1.72 µM; with SNB-75 CNS, 1.48 µM; in the assay with UACC-257 melanoma, 1.84 µM. In addition, the TGI in the assay on HCT-116 colon came to 3.19 µM; in the assay on HS 578T breast, 8.11 µM; with HT29 colon, 3.95 µM; with M14 melanoma, 3.71 µM; in the assay on NCI-H226 lung it was 5.26 µM; in the assay on OVCAR-3 ovarian, 3.28 µM. The TGI in the assay with SK-MEL-28 melanoma was determined as 3.37 µM; in the assay with SN12C renal it was 3.35 µM; with SNB-75 CNS it was 5.8 µM; in the assay on UACC-257 melanoma, 3.8 µM.
Take `COc1ccc(C(=O)C(CN(C)C)CN(C)C)cc1`: the GI50 is 1.3 µM with HCT-116 colon; 17.3 µM in the assay on HS 578T breast; 2.3 µM in the assay on HT29 colon; 3.53 µM in the assay on M14 melanoma; 16.9 µM in the assay with NCI-H226 lung; 1.29 µM in the assay with OVCAR-3 ovarian. The GI50 with SK-MEL-28 melanoma is 12.6 µM; in the assay on SN12C renal, 12.6 µM; in the assay with SNB-75 CNS it was 11.4 µM; in the assay with UACC-257 melanoma, 2.14 µM. The TGI in the assay with HCT-116 colon turned out to be 2.63 µM; with HS 578T breast, 56.3 µM; in the assay on HT29 colon, 5.77 µM; in the assay on M14 melanoma it was 13.5 µM; in the assay on NCI-H226 lung it was 37.6 µM; in the assay with OVCAR-3 ovarian, 2.57 µM. For the same compound, the TGI in the assay with SK-MEL-28 melanoma was 27.3 µM; with SN12C renal it was 56.4 µM; in the assay with SNB-75 CNS, 26.5 µM; with UACC-257 melanoma it was 8.48 µM.
Turning to `CC(C)C[C@H](NC(=O)CNC(=O)c1cc(Cl)ccc1Cl)B(O)O`, the GI50 with HCT-116 colon was less than 0.0131 µM; in the assay with HS 578T breast, 0.0489 µM; with HT29 colon, less than 0.0155 µM; in the assay with M14 melanoma it was 0.0202 µM; with NCI-H226 lung, 0.416 µM; in the assay on OVCAR-3 ovarian it was less than 0.0141 µM. Moreover, the GI50 was less than 0.0175 µM in the assay with SK-MEL-28 melanoma, 0.0442 µM in the assay on SN12C renal, 0.0256 µM in the assay on SNB-75 CNS and 0.0153 µM in the assay on UACC-257 melanoma. Also, the TGI with HCT-116 colon was 0.659 µM; with HS 578T breast, more than 50.4 µM; in the assay with HT29 colon it was 0.0616 µM; in the assay on NCI-H226 lung, 5.09 µM; in the assay with OVCAR-3 ovarian, 0.0292 µM; in the assay with SK-MEL-28 melanoma it was 0.174 µM. Further, the values for the TGI in the assay with SN12C renal, in the assay on SNB-75 CNS and in the assay on UACC-257 melanoma were 0.39 µM, 0.124 µM and 0.0492 µM, respectively.
